In article PMC8245773, “Brevibacillin 2V, a Novel Antimicrobial Lipopeptide With an Exceptionally Low Hemolytic Activity” (Frontiers in Microbiology, 2021):
*1 amine or outer side, *2 acyl side, *3 side chain or, on linkers, in order; H or OH if unused. Where a SMILES comes first, the peptide text is derived from it. [ ]: non-standard residue; d: D form. The star is where a group is joined. X2 = CC=C(N[*:1])C(=O)[*:2]; dOrn = NCCC[C@@H](N)C(=O)O; Valol = CC(C)[C@@H](CO)N*; X1 = CCC(C)C(O)C(=O)*

Columns and labels:
HepG2 cells = conditions: for HepG2 CC50: 24 h
Procedure: The cytotoxicity of brevibacillins was evaluated on HepG2 cells by using the XTT (Cell Proliferation Kit XTT, AppliChem) assay ([Roehm et al., 1991]). HepG2 cells [in Dulbecco’s modified Eagle’s medium (DMEM) supplemented with 10% fetal bovine serum] were seeded into 96-well plates and incubated at 37°C with 5% CO2. After 24 h, the medium was replaced with a fresh medium (DMEM with 2% FBS, 100 μl per well) containing different concentrations of brevibacillins ([Zhao et al., 2017]). After 24 h of incubation, the XTT reagent was added to the cultures according to the manufacturer’s instructions, and the plates were incubated at 37°C for 2 h with 5% CO2. Subsequently, the absorbance values were measured by using a Varioskan^TM LUX multimode microplate reader (Thermo Fisher Scientific) at 485 nm (reference, 690 nm). The 50% cell toxicity (CC50) of peptides was calculated as described in a previous study ([Reed and Muench, 1938]).
(§1) GraphPad Prism 7.0 was used to fit the data of hemolytic assay and cytotoxicity assay in Figure 3. The experiments were conducted in triplicate, and data are presented as the mean value of triplicate experiments. Data Explorer Software was used to analyze the MALDI-TOF data; Thermo Scientific Xcalibur software was used to analyze the LC–MS/MS data. The statistical significance of the data was assessed using Duncan’s multiple-range test with the software SPSS Statistics 19.0. P-values less than 0.05 were considered to be statistically significant.

human erythrocytes = experiment: Hemolytic activity
Procedure: This assay was performed as per the method described in previous studies ([Ling et al., 2015]; [Li et al., 2018]). Briefly, erythrocytes were isolated from a healthy human volunteer donor (ordered from Sanquin, Netherlands^1) and washed with phosphate-buffered saline (PBS) three times. After that, peptides were added at final concentrations of 128, 64, 32, 16, 8, 4, 2, 1, and 0 mg/L in PBS containing 2% (v/v) erythrocytes. The cells were incubated at 37°C for 1 h and centrifuged for 5 min at 8,000 g. The supernatant was transferred to a 96-well plate, and the absorbance was measured at a wavelength of 450 nm with a Thermo Scientific Varioskan^TM LUX multimode microplate reader. The absorbance relative to the positive control, which was treated with 10% Triton X-100, was defined as the percentage of hemolysis. The 50% human blood cell hemolysis concentration (HC50) of peptides was calculated as described in previous studies ([Reed and Muench, 1938]).
as §1

P. aeruginosa LMG6395 = experiment: Synergy assay, checkerboard method; conditions: for FICI: synergistic ≤0.5;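 as to all read-outs here: antibiotics tested in twofold serial dilutions, with inhibition judged from plate OD600 readings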
Procedure: (§2) Briefly, antibiotics were diluted in twofold series, while brevibacillins were added at a certain final concentration of 1, 2, or 4 mg/L. Indicator strains were added at a final concentration of 5 × 10^5 cfu/ml. After incubation at 37°C for 20 h, the OD600 of plates was determined. The fractional inhibitory concentration index (FICI) was calculated using the following formula: FICI = (MIC compound A in combination with B / MIC compound A) + (MIC compound B in combination with A / MIC compound B).

E. coli ATCC 25922 = experiment: Synergy assay, checkerboard method; conditions: for FICI: synergistic ≤0.5;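 as to all read-outs here: growth read as OD600 in microplates, with antibiotics tested across twofold serial dilutions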
Procedure: as §2

A. baumannii ATCC17978 = experiment: Synergy assay, checkerboard method; conditions: for FICI: synergistic ≤0.5
Procedure: as §2

K. pneumoniae LMG20218 = experiment: Synergy assay, checkerboard method; conditions: for FICI: synergistic ≤0.5
Procedure: as §2

[1] = checkerboard, 5 × 10^5 cfu/ml, 37°C, 20 h, antibiotic alone
[2] = checkerboard, 5 × 10^5 cfu/ml, 37°C, 20 h, E.coli ATCC 25922, antibiotic alone
[3] = checkerboard, 5 × 10^5 cfu/ml, 37°C, 20 h, A. baumannii ATCC17978, antibiotic alone

## CC=C(NC(=O)C(O)C(C)CC)C(=O)N[C@@H](CC(C)C)C(=O)N[C@H](CCCN)C(=O)N[C@H](C(=O)N[C@H](C(=O)N[C@H](C(=O)N[C@H](CCCCN)C(=O)N[C@H](C(=O)N[C@H](C(=O)N[C@@H](CCCCN)C(=O)N[C@H](Cc1ccc(O)cc1)C(=O)N[C@@H](CC(C)C)C(=O)N[C@H](CO)C(C)C)C(C)C)[C@@H](C)CC)C(C)C)[C@@H](C)CC)[C@@H](C)CC (stereo partly drawn) [brevibacillin I] (X1-[X2]L[dOrn]IIV[dK]IVK[dY]L-Valol)
HepG2 cells
  CC50 (HepG2) relative to MIC values against bacterial pathogens: 2.5- to fivefold
  cytotoxicity to HepG2 cells at 16 mg/L: all of the HepG2 cells were killed
  HepG2 CC50: 7.38 ± 0.30 µg/mL
Human erythrocytes
  hemolytic activity at 64 mg/L: completely lysed

## CC=C(NC(=O)C(O)C(C)CC)C(=O)N[C@@H](CC(C)C)C(=O)N[C@H](CCCN)C(=O)N[C@H](C(=O)N[C@H](C(=O)N[C@H](C(=O)N[C@H](CCCCN)C(=O)N[C@H](C(=O)N[C@H](C(=O)N[C@@H](CCCCN)C(=O)N[C@H](Cc1ccc(O)cc1)C(=O)N[C@@H](CC(C)C)C(=O)N[C@H](CO)C(C)C)C(C)C)C(C)C)C(C)C)C(C)C)C(C)C (stereo partly drawn) [brevibacillin 2V] (X1-[X2]L[dOrn]VVV[dK]VVK[dY]L-Valol)
HepG2 cells
  CC50 (HepG2) relative to MIC values against bacterial pathogens: 23 fold
  cytotoxicity to HepG2 cells at 32 mg/L: no cytotoxicity
  HepG2 CC50: 45.49 ± 0.24 µg/mL
Human erythrocytes; 128 mg/L, human erythrocytes, 37°C, 1 h
  hemolytic activity at 128 mg/L: No hemolytic activity
Human erythrocytes; red cells of human, 1 h
  HC50 (concentration that causes 50% hemolysis of human red blood cells): > 128 mg/L

## NCC[C@H](O)C(=O)N[C@@H]1C[C@H](N)[C@@H](O[C@H]2O[C@H](CN)[C@@H](O)[C@H](O)[C@H]2O)[C@H](O)[C@H]1O[C@H]1O[C@H](CO)[C@@H](O)[C@H](N)[C@H]1O [Amikacin]
P. aeruginosa LMG6395; antibiotic + brevibacillin 2V
  FICI: 0.266
P. aeruginosa LMG6395; antibiotic + brevibacillin I
  FICI: 0.266
P. aeruginosa LMG6395; antibiotic + brevibacillin V
  FICI: 0.266
P. aeruginosa LMG6395; antibiotic + brevibacillin
  FICI: 0.266
P. aeruginosa LMG6395; [1]
  MIC of antibiotic at brevibacillin 0 mg/L: 2 µg/mL
  MIC of antibiotic at brevibacillin 2V 0 mg/L: 2 µg/mL
  MIC of antibiotic at brevibacillin I 0 mg/L: 2 µg/mL
  MIC of antibiotic at brevibacillin V 0 mg/L: 2 µg/mL
E. coli ATCC 25922; antibiotic + brevibacillin 2V, E. coli ATCC 25922
  FICI: 0.188
E. coli ATCC 25922; antibiotic + brevibacillin I, E.coli ATCC 25922
  FICI: 0.281
E. coli ATCC 25922; antibiotic + brevibacillin V, E.coli ATCC 25922
  FICI: 0.250
E. coli ATCC 25922; antibiotic + brevibacillin, E.coli ATCC 25922
  FICI: 0.156
E. coli ATCC 25922; [2]
  MIC of antibiotic at brevibacillin 0 mg/L: 4 µg/mL
  MIC of antibiotic at brevibacillin 2V 0 mg/L: 4 µg/mL
  MIC of antibiotic at brevibacillin I 0 mg/L: 4 µg/mL
  MIC of antibiotic at brevibacillin V 0 mg/L: 4 µg/mL
A. baumannii ATCC17978; antibiotic + brevibacillin 2V, A. baumannii ATCC17978
  FICI: 0.141
A. baumannii ATCC17978; antibiotic + brevibacillin I, A. baumannii ATCC17978
  FICI: 0.078
A. baumannii ATCC17978; antibiotic + brevibacillin V, A. baumannii ATCC17978
  FICI: 0.094
A. baumannii ATCC17978; antibiotic + brevibacillin, A. baumannii ATCC17978
  FICI: 0.094
A. baumannii ATCC17978; [3]
  MIC of antibiotic at brevibacillin 0 mg/L: 16 µg/mL
  MIC of antibiotic at brevibacillin 2V 0 mg/L: 16 µg/mL
  MIC of antibiotic at brevibacillin I 0 mg/L: 16 µg/mL
  MIC of antibiotic at brevibacillin V 0 mg/L: 16 µg/mL
A. baumannii ATCC17978; in the presence of 4 mg/L brevibacillins
  decrease of MIC of amikacin against A. baumannii: 32–64 folds
K. pneumoniae LMG20218; antibiotic + brevibacillin 2V
  FICI: 0.563
K. pneumoniae LMG20218; antibiotic + brevibacillin I
  FICI: 0.563
K. pneumoniae LMG20218; antibiotic + brevibacillin V
  FICI: 1.016
K. pneumoniae LMG20218; antibiotic + brevibacillin
  FICI: 1.031
K. pneumoniae LMG20218; [1]
  MIC of antibiotic at brevibacillin 0 mg/L: 0.5 µg/mL
  MIC of antibiotic at brevibacillin 2V 0 mg/L: 0.5 µg/mL
  MIC of antibiotic at brevibacillin I 0 mg/L: 0.5 µg/mL
  MIC of antibiotic at brevibacillin V 0 mg/L: 0.5 µg/mL
